Assay results reported in patent publication US20230085307A1, “PYRIDAZINONE COMPOUND AND HERBICIDE” (NISSAN CHEMICAL CORPORATION, priority 2019, published 2023).

Legend:
redroot pigweed [1] = experiment: Test Example 4: herbicidal effect by soil treatment (Table 19, symbol N); assay type: in vivo, redroot pigweed (Amaranthus retroflexus); settings: amount of applied herbicide 320 g/ha
Method in brief: (§1)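 Applied as a water-diluted emulsion, the compound was sprayed onto soil covering newly sown seeds. Evaluation came three weeks after application, in a greenhouse held at 25° C. to 30° C.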

redroot pigweed [2] = experiment: Test Example 5: herbicidal effect by foliage application, plastic box (Table 20, symbol N); assay type: in vivo, redroot pigweed (Amaranthus retroflexus); settings: foliage application, 320 g/ha, evaluated three weeks after application
Method in brief: (§2)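 Sow seeds spot-wise in sterilized diluvial soil; cover with ~1.5 cm soil. Grow 14 days in greenhouse, 25° C. to 30° C. Spray foliage with emulsion diluted to predetermined amount. Rate effect after 3 weeks.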

green foxtail [3] = experiment: Test Example 5: herbicidal effect by foliage application, plastic box (Table 20, symbol G); assay type: in vivo, green foxtail (Setaria viridis); settings: foliage application, 320 g/ha, evaluated three weeks after application
Method in brief: as §2

southern crabgrass [4] = experiment: Test Example 4: herbicidal effect by soil treatment (Table 19, symbol F); assay type: in vivo, southern crabgrass (Digitaria ciliaris); settings: amount of applied herbicide 320 g/ha
Method in brief: as §1

southern crabgrass [5] = experiment: Test Example 5: herbicidal effect by foliage application, plastic box (Table 20, symbol F); assay type: in vivo, southern crabgrass (Digitaria ciliaris); settings: foliage application, 320 g/ha, evaluated three weeks after application
Method in brief: as §2

windgrass [6] = experiment: Test Example 4: herbicidal effect by soil treatment (Table 19, symbol L); assay type: in vivo, windgrass (Apera spica-venti); settings: amount of applied herbicide 320 g/ha
Method in brief: as §1

windgrass [7] = experiment: Test Example 5: herbicidal effect by foliage application, plastic box (Table 20, symbol L); assay type: in vivo, windgrass (Apera spica-venti); settings: foliage application, 320 g/ha, evaluated three weeks after application
Method in brief: as §2

chickweed [8] = experiment: Test Example 4: herbicidal effect by soil treatment (Table 19, symbol P); assay type: in vivo, common chickweed (Stellaria media); settings: amount of applied herbicide 320 g/ha
Method in brief: as §1

lambsquarters [9] = experiment: Test Example 5: herbicidal effect by foliage application, plastic box (Table 20, symbol O); assay type: in vivo, lambsquarters (Chenopodium album); settings: foliage application, 320 g/ha, evaluated three weeks after application
Method in brief: as §2

Chinese sprangletop = experiment: Test Example 3: herbicidal effect by foliage application, Wagner pot (Table 18, symbol D); assay type: in vivo, chinese sprangletop (Leptochloa chinensis); settings: amount of applied herbicide 320 g/ha
Method in brief: (§3)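 Plants were sown in alluvial soil held under 0.1–0.5 cm standing water and grown 14 days in a greenhouse at 25–30 °C. An emulsifiable formulation, water-diluted to the set dose, was then sprayed onto the foliage, and effects were scored three weeks later using previously defined criteria.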

wild oat [10] = experiment: Test Example 5: herbicidal effect by foliage application, plastic box (Table 20, symbol I); assay type: in vivo, wild oat (Avena fatua); settings: foliage application, 320 g/ha, evaluated three weeks after application
Method in brief: as §2

lambsquarters [11] = experiment: Test Example 4: herbicidal effect by soil treatment (Table 19, symbol O); assay type: in vivo, lambsquarters (Chenopodium album); settings: amount of applied herbicide 320 g/ha
Method in brief: as §1

wild oat [12] = experiment: Test Example 4: herbicidal effect by soil treatment (Table 19, symbol I); assay type: in vivo, wild oat (Avena fatua); settings: amount of applied herbicide 320 g/ha
Method in brief: as §1

rice flat sedge = experiment: Test Example 3: herbicidal effect by foliage application, Wagner pot (Table 18, symbol E); assay type: in vivo, rice flat sedge (Cyperus iria); settings: amount of applied herbicide 320 g/ha
Method in brief: as §3

barnyard grass [13] = experiment: Test Example 3: herbicidal effect by foliage application, Wagner pot (Table 18, symbol H); assay type: in vivo, barnyard grass (Echinochloa crus-galli); settings: amount of applied herbicide 320 g/ha
Method in brief: as §3

barnyard grass [14] = experiment: Test Example 4: herbicidal effect by soil treatment (Table 19, symbol H); assay type: in vivo, barnyard grass (Echinochloa crus-galli); settings: amount of applied herbicide 320 g/ha
Method in brief: as §1

persian speedwell [15] = experiment: Test Example 4: herbicidal effect by soil treatment (Table 19, symbol R); assay type: in vivo, Persian speedwell (Veronica persica); settings: amount of applied herbicide 320 g/ha
Method in brief: as §1

chickweed [16] = experiment: Test Example 5: herbicidal effect by foliage application, plastic box (Table 20, symbol P); assay type: in vivo, common chickweed (Stellaria media); settings: foliage application, 320 g/ha, evaluated three weeks after application
Method in brief: as §2

Italian ryegrass [17] = experiment: Test Example 5: herbicidal effect by foliage application, plastic box (Table 20, symbol K); assay type: in vivo, Italian ryegrass (Lolium multiflorum); settings: foliage application, 320 g/ha, evaluated three weeks after application
Method in brief: as §2

barnyard grass [18] = experiment: Test Example 5: herbicidal effect by foliage application, plastic box (Table 20, symbol H); assay type: in vivo, barnyard grass (Echinochloa crus-galli); settings: foliage application, 320 g/ha, evaluated three weeks after application
Method in brief: as §2

blackgrass = experiment: Test Example 5: herbicidal effect by foliage application, plastic box (Table 20, symbol J); assay type: in vivo, blackgrass (Alopecurus myosuroides); settings: foliage application, 320 g/ha, evaluated three weeks after application
Method in brief: as §2

Italian ryegrass [19] = experiment: Test Example 4: herbicidal effect by soil treatment (Table 19, symbol K); assay type: in vivo, Italian ryegrass (Lolium multiflorum); settings: amount of applied herbicide 320 g/ha
Method in brief: as §1

velvetleaf [20] = experiment: Test Example 4: herbicidal effect by soil treatment (Table 19, symbol M); assay type: in vivo, velvetleaf (Abutilon theophrasti); settings: amount of applied herbicide 320 g/ha
Method in brief: as §1

velvetleaf [21] = experiment: Test Example 5: herbicidal effect by foliage application, plastic box (Table 20, symbol M); assay type: in vivo, velvetleaf (Abutilon theophrasti); settings: foliage application, 320 g/ha, evaluated three weeks after application
Method in brief: as §2

green foxtail [22] = experiment: Test Example 4: herbicidal effect by soil treatment (Table 19, symbol G); assay type: in vivo, green foxtail (Setaria viridis); settings: amount of applied herbicide 320 g/ha
Method in brief: as §1

persian speedwell [23] = experiment: Test Example 5: herbicidal effect by foliage application, plastic box (Table 20, symbol R); assay type: in vivo, Persian speedwell (Veronica persica); settings: foliage application, 320 g/ha, evaluated three weeks after application
Method in brief: as §2

COCCOC(=O)Oc1c(C)nn(C)c(=O)c1-c1c(-c2ccc(F)cc2OC)sc2ccc(Cl)cc12 [2-114]
N: redroot pigweed, herbicidal effect rating (redroot pigweed [1]): 5 (Herbicidal rate of 90% or more (almost completely withered)) | herbicidal effect on N: redroot pigweed (redroot pigweed [2]): 1 (Herbicidal rate of 5% or more and less than 20%) | herbicidal effect on G: green foxtail (green foxtail [3]): 1 (Herbicidal rate of 5% or more and less than 20%) | F: southern crabgrass, herbicidal effect rating (southern crabgrass [4]): 0 (Herbicidal rate of 5% or less (almost no effect)) | herbicidal effect on F: southern crabgrass (southern crabgrass [5]): 0 (Herbicidal rate of 5% or less (almost no effect)) | L: windgrass, herbicidal effect rating (windgrass [6]): 0 (Herbicidal rate of 5% or less (almost no effect)) | herbicidal effect on L: windgrass (windgrass [7]): 4 (Herbicidal rate of 70% or more and less than 90%) | P: chickweed, herbicidal effect rating (chickweed [8]): 4 (Herbicidal rate of 70% or more and less than 90%) | herbicidal effect on O: lambsquarters (lambsquarters [9]): 3 (Herbicidal rate of 40% or more and less than 70%) | herbicidal effect on D: Chinese sprangletop (Chinese sprangletop): 3 (Herbicidal rate of 40% or more and less than 70%) | herbicidal effect on I: wild oat (wild oat [10]): 0 (Herbicidal rate of 5% or less (almost no effect)) | O: lambsquarters, herbicidal effect rating (lambsquarters [11]): 3 (Herbicidal rate of 40% or more and less than 70%) | I: wild oat, herbicidal effect rating (wild oat [12]): 0 (Herbicidal rate of 5% or less (almost no effect)) | herbicidal effect on E: rice flat sedge (rice flat sedge): 5 (Herbicidal rate of 90% or more (almost completely withered)) | herbicidal effect on H: barnyard grass (barnyard grass [13]): 4 (Herbicidal rate of 70% or more and less than 90%) | H: barnyard grass, herbicidal effect rating (barnyard grass [14]): 0 (Herbicidal rate of 5% or less (almost no effect)) | R: persian speedwell, herbicidal effect rating (persian speedwell [15]): 0 (Herbicidal rate of 5% or less (almost no effect)) | herbicidal effect on P: chickweed (chickweed [16]): 5 (Herbicidal rate of 90% or more (almost completely withered)) | herbicidal effect on K: Italian ryegrass (Italian ryegrass [17]): 0 (Herbicidal rate of 5% or less (almost no effect)) | herbicidal effect on H: barnyard grass (barnyard grass [18]): 3 (Herbicidal rate of 40% or more and less than 70%) | herbicidal effect on J: blackgrass (blackgrass): 4 (Herbicidal rate of 70% or more and less than 90%) | K: Italian ryegrass, herbicidal effect rating (Italian ryegrass [19]): 0 (Herbicidal rate of 5% or less (almost no effect)) | M: velvetleaf, herbicidal effect rating (velvetleaf [20]): 0 (Herbicidal rate of 5% or less (almost no effect)) | herbicidal effect on M: velvetleaf (velvetleaf [21]): 3 (Herbicidal rate of 40% or more and less than 70%) | G: green foxtail, herbicidal effect rating (green foxtail [22]): 0 (Herbicidal rate of 5% or less (almost no effect)) | herbicidal effect on R: persian speedwell (persian speedwell [23]): 3 (Herbicidal rate of 40% or more and less than 70%)
